Experimental data from US20130274233A1, “MODULATORS OF HEDGEHOG SIGNALING PATHWAY” (priority 2012, published 2013).

How the values were obtained:
[1] = target: T1, SmoM2::GFP (Homo sapiens, UniProt Q99835, W535L); assay: Ciliary localization of SmoM2::GFP (3T3/SmoM2::GFP Overexpression/Ivs::tagRFPT); format: cell-based; conditions: SmoM2::EGFP overexpressing cells
T1 construct: expressed in transfected cells
Text: (§1) NIH/3T3 cells were maintained in DMEM containing 10% (v/v) calf serum, penicillin, streptomycin, and L-glutamine. HEK293, L, cos 7, and suFU−/− mouse embryonic fibroblast cells were maintained in DMEM containing 10% (v/v) fetal bovine serum, penicillin, streptomycin, and L-glutamine. Smo::EGFP, SmoM2::GFP, and Ivs::tagRFPT were cloned into pBabe to generate retroviral particles for infection. Smo::EGFP/Ivs::tagRFPT and SmoM2::GFP/Ivs::tagRFPT stable cell lines were generated through viral infection of NIH/3T3^12. A ShhLightII Gli reporter cell line was obtained from the American Type Culture Collection (ATCC) and used in luciferase reporter assays to measure Hh pathway activity. The cell line contains a stably integrated Gli-responsive Firefly luciferase reporter and a constitutive Renilla luciferase expression construct^33. Subclones expressing Smo or SmoM2 in ShhLightII cells were used for chemical epistasis analyses.
(§2) Cells were cultured and treated in 384-well imaging plate precoated with poly-D-Lysine (Greiner Bio-one), fixed with 4% paraformaldehyde (Electron Microscopy Sciences), and stained with Hoechst (Invitrogen). Images were collected using Opera High Content Screening System (Perkin Elmer). Activityl)ase (IDBS Inc, Emeryvill, Calif.) and Pipeline Pilot (Accelrys, Inc. San Diego, Calif.) were used for high content screening data management and analysis. Acapella 2.0 software (Evotec Technologies/PerkinElmer) was used to perform multi-parametrical high content image quantification. All the images for comparison were scanned with identical microscopic settings and analyzed with the same input parameters.
(§3) Acapella 2.0 software (Evotec Technologies/PerkinElmer) was used to perform multi-parametric high content image quantification. Our image analysis script used Ivs::tagREPT to first determine the location of the PC and then Smo::EGFP to quantify the level of Smo present in the cilium.

[2] = target: T2, Smo::EGFP (Homo sapiens, UniProt Q99835); assay: Cyc-induced Smo ciliary accumulation (Smo::EGFP/Ivs::tagRFPT cells); format: cell-based; conditions: 5 μM Cyc
T2 construct: expressed in transfected cells
Procedure: as §2, §3

[3] = target: T2, Smo::EGFP; assay: High content assay of Shh-induced Smo::EGFP accumulation in the primary cilium (Smo::EGFP/Ivs::tagRFPT NIH/3T3 cells); format: cell-based; conditions: in the presence of Shh
Text: as §1, §2, §3
The inventors used the spot-finding algorithm in the RFP channel to find Ivs-rich spots. Each non-overlapping spot was based on a maximum 8 pixel-radius (when using a 40× objective) around a central intensity peak of 5 pixels. A distance of at least 10 pixels was required between adjacent spot centers. Spot peaks had to exceed thresholds of relative intensity compared to the remaining body of the spot as well as to the entire image. The average, maximum and total RFP intensity of each spot were measured. The spots with sufficiently high absolute maxima to pass the selected threshold were classified as positive spots. To form candidate cilia, the inventors selected the brightest 15% of the pixels in each positive spot and merged those pixels into objects so that the brightest parts of adjacent spots could form single, larger cilia-shaped objects. To qualify the candidate cilia as true Ivs-positive cilia, the width of the objects created from merging the brightest pixels in each spot had to be at least 2 pixels and the length to half-width ratio had to exceed 3. (i.e. a 3-pixel long by 2-pixel wide cilium was the minimum accepted cilium size and the length had to be at least 1.5 fold of the width). The mean GFP intensity within these Ivs-positive cilia was used to estimate the ciliary level of Smo protein. The inventors subtracted the background of the mean GFP intensity in the 3-pixel wide area around each candidate cilium to avoid some false positives. Those Ivs-positive cilia that exceed the final mean GFP intensity threshold set for each experiment were deemed Smo-positive cilia.
Hoechst staining was used to determine the total number of nuclei per well.
Measurements of the geometry of the cilia as well as the total fluorescent intensities of each cilium in the Smo- and Ivs-channels were used to determine if any of the compounds were having unusual effects on cilia size, intensity or frequency of observation or combinations of all three characteristics.

[4] = test system: SmoM2; assay: Gli-luciferase reporter induced by SmoM2::GFP overexpression (SmoM2/LightII cells); format: cell-based; conditions: SmoM2 versus wild-type Smo
Text: as §1
(§4) Hh activity assays were performed using ShhLightll cells, Smo/Lightll cells, SmoM2/Lightll cells, and suFU−/− mouse embryonic fibroblasts. In the suFU−/− cells, Hh activity was measured after co-transfection with Gli driven firefly luciferase and TK-renilla luciferase reporters^41. Wnt activity was measured in 293 cells co-transfected with Top-flash and TK-renilla luciferase reporters^42. Cells were cultured and treated in 96 well assay plates (Corning) and incubated with Duo-Glo luciferase substrates (Promega) to measure firefly and renilla luciferase activity sequentially using a Top Count NX Microplate Scintillation and Luminescence Counter (Perkin Elmer). The renilla luciferase signal was used to normalize the firefly reporter activity.
(§5) ShhLightII cells and SmoM2/LightII cells were cultured and treated in 96 well assay plates (Corning) and incubated with Duo-Glo luciferase substrates (Promega) to sequentially measure firefly and renilla luciferase activity. Smo, or GFP, expression plasmids were co-transfected into 3T3 cells together with a Gli-responsive firefly reporter and a TK-renilla luciferase reporter contruct to monitor effects of Smo overexpression. Co-transfection of the two reporter constructs was conducted in assays measuring Hh pathway activity in suFU−/− cells. Wnt activity was measured following co-transfection of a Top-flash and renilla luciferase reporter. In both Hh and Wnt activity assays, renilla luciferase reporter activity, or mass of protein, was used to normalize expression values. Luciferase signal was read by TopCount NX Microplate Scintillation and Luminescence Counter (Perkin Elmer). Quantitative PCR probes for Ptch1, Gli1, and β-actin were purchased from Applied Biosystems. Reactions and measurements were performed using on an Applied Biosystems 7900HT at Harvard FAS Center of System Biology. β-actin was used to normalize Ptch1 and Gil1 values.

[5] = test system: Smo; assay: Bodipy-cyclopamine competition assay in Cos 7 cells expressing Smo; format: binding; conditions: cells over-expressing Smo, 5 nM Bodipy-cyclopamine
Procedure: Cos 7 cells were transfected with a plasmid co-expressing Smo and a nuclear localized form of tagRFPT (pCIT-Smo). An empty parental construct (pCIT), and a construct that co-expresses SmoM2, were used as controls to assess specificity and background noise. Three days after transfection, cells were incubated with 5 nM Bodipy-cyclopamine, with or without other compounds for 1 hour at 37 °C. Cells were washed, fixed and stained with Hoechst. Images were collected by an Opera High Content Screen System. Bodipy fluorescence was quantified specifically for transfected cells (determined by red tagRFPT+ nucleus) using a program developed by the authors with Acapella 2.0 software. All of the images were scanned with identical microscopic settings and analyzed with the same input parameters.
Cos 7 cells were transfected with a plasmid that co-expresses Smo and a nuclear localized tagRFPT marker (pCIT-Smo). The empty parental construct (pCIT) and a construct that co-express SmoM2 were used as controls to assess specificity and background signal. Three days after transfection, cells were incubated with 5 nM Bodipy-cyclopamine, with or without additional compounds, for 1 hour at 37° C. Cells were then fixed and stained with Hoechst. Images were collected with the Opera High Content Screen System. Fluorescence values were assessed in transfected cells (red nuclei) with a program developed by the authors using Acapella 2.0 software. All of images were scanned with identical microscopic setting and analyzed with the same input parameters.

[6] = test system: Hh pathway activity; assay: Gli-luciferase reporter assay, Shh-induced Hh pathway activity (ShhLightII cells); format: cell-based; conditions: Gli-luciferase induction and Smo ciliary localization; 10 μM FA
Text: as §1, §4, §5

[7] = target: T2, Smo::EGFP; assay: FA promoted accumulation of Smo in the PC, inhibition by Smo antagonists; format: cell-based; conditions: FA-induced
Procedure: Cells were cultured and treated in 384-well imaging plate precoated with poly-D-Lysine (Greiner Bio-one), fixed with 4% paraformaldehyde (Electron Microscopy Sciences), and stained with Hoechst (Invitrogen). Images were collected using Opera High Content Screening System (Perkin Elmer). ActivityBase (IDBS), Pipeline Pilot (Accelrys), Excel (Microsoft), and Prism (GraphPad) were used for high content screening data management and analysis. Acapella 2.0 software (Evotec Technologies/PerkinElmer) was used to perform multi-parametric image quantification. All the comparative images were scanned with identical microscopic setting and analyzed with the same input parameters.

[8] = test system: Hh pathway activity; assay: Gli-luciferase reporter assay, Hh pathway activation by compound alone (NIH/3T3 cells); format: cell-based; conditions: FA at high concentrations
Procedure: as §5

[9] = test system: Hh pathway activation induced by loss of suFU; assay: Gli-luciferase assay in suFU−/− mouse embryonic fibroblasts; format: cell-based; conditions: suFU−/− cells
Procedure: as §4
ShhLightII cells and SmoM2/LightII cells were cultured and treated in 96 well assay plates (Corning) and incubated with Duo-Glo luciferase substrates (Promega) to sequentially measure firefly and renilla luciferase activity. […] Wnt activity was measured following co-transfection of a Top-flash and renilla luciferase reporter. […] Luciferase signal was read by TopCount NX Microplate Scintillation and Luminescence Counter (Perkin Elmer). Quantitative PCR probes for Ptch1, Gli1, and β-actin were purchased from Applied Biosystems. […]

[10] = test system: Hh pathway activity; assay: Priming and withdrawal of compound followed by Shh stimulation, Gli-luciferase reporter (hypersensitivity); format: cell-based; conditions: priming 24 hours, washout, then Shh (or SAG) stimulation
Procedure: as §4
Following the removal of drug containing medium, and extensive washing, cells were stimulated with either Hh ligand, or the direct-binding Smo agonist SAG^17,18.
as §5

[11] = human cancer patients, after a single high dose; cited from earlier work

T2 sequence (Q99835 28-787): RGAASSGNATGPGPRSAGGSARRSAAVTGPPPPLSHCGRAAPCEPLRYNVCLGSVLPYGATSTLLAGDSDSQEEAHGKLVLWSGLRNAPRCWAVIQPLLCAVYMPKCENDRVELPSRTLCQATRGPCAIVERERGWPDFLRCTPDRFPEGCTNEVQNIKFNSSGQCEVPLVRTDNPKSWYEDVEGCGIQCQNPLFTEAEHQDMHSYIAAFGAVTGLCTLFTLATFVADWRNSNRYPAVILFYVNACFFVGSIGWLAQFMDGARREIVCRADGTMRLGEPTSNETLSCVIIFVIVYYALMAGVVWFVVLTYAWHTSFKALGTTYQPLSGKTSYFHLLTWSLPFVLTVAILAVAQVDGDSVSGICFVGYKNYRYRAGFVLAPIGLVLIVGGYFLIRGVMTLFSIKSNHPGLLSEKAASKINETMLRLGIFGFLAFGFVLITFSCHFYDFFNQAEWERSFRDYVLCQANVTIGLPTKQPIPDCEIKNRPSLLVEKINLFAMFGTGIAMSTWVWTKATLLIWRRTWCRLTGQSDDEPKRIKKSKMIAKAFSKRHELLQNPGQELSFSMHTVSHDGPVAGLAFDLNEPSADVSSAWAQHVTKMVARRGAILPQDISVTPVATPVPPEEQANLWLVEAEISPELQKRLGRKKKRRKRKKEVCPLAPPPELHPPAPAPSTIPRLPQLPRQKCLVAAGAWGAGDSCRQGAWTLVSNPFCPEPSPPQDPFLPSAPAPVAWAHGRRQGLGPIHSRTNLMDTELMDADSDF
T1 sequence (Q99835 28-787 W535L): as the sequence (Q99835 28-787) above, with W508L counted along it

Compound	effect on SmoM2 ciliary localization [1]	effect on Cyc induced Smo cilial accumulation [2]	inhibition of Shh-induced Smo::EGFP accumulation in the PC [3]	IC50's for SmoM2 relative to IC50's for wildtype Smo [4]	competition of Bodipy-Cyc binding to Smo [5]	Hh pathway inhibition by the antagonist in the presence of FA [6]	effect on FA promoted accumulation of Smo in the PC [7]	effect on FA induced activation of the Hh pathway [8]	effect on Hh pathway activation induced by loss of suFU [9]	hypersensitivity to Hh pathway stimulation after priming with and removal of compound, Gli-luciferase [10]	peak plasma concentration [11] [µM]
Cc1nn(-c2ccccc2)c(C)c1/C=N/N1CCN(Cc2ccccc2)CC1 [SANT-1]	did not alter SmoM2 ciliary accumulation	effectively compete with Cyc	specifically inhibited Smo::EGFP accumulation in the PC	at least an order of magnitude higher	effective competitor	dramatically reduced	inhibit	blocked			
CS(=O)(=O)c1ccc(C(=O)Nc2ccc(Cl)c(-c3ccccn3)c2)c(Cl)c1 [GDC0449]	did not alter SmoM2 ciliary accumulation	effectively compete with Cyc	specifically inhibited Smo::EGFP accumulation in the PC	at least an order of magnitude higher		dramatically reduced	inhibit		does not alter	no enhancing activity	
C[C@@H]1C[C@H]2[C@@H]3CCC4=CC(=O)C=C[C@]4(C)[C@@]3(F)[C@@H](O)C[C@]2(C)[C@@]1(O)C(=O)CO [Dexamethasone]											> 10
